Laboratory results: DBAASP
Converted amounts (≈) assume the structure as drawn.

Experiments:
Assay in all cases: ≥ marks a high value that may be exact or a test limit, other limits are often not marked, values filed in µg/mL are converted to µM
[1] = tested on: Bacillus subtilis
[2] = tested on: Escherichia coli
[3] = tested on: Staphylococcus aureus
[4] = tested on: Staphylococcus epidermidis
[5] = tested on: Candida albicans
[6] = tested on: Candida albicans ATCC 90028
[7] = tested on: Escherichia coli ATCC 25922
[8] = tested on: Acinetobacter baumannii
[9] = tested on: Staphylococcus aureus ATCC 25923
[10] = tested on: Bacillus subtilis ATCC 6633
[11] = tested on: Candida albicans ATCC 10231
[12] = tested on: Klebsiella pneumoniae ATCC 700603
[13] = tested on: Staphylococcus aureus ATCC 29213
[14] = tested on: Pseudomonas aeruginosa ATCC 27853
[15] = tested on: Candida albicans ATCC 2002

With CC[C@H](C)[C@H](NC(=O)[C@H](CC(C)C)NC(=O)[C@H](C)NC(=O)[C@@H]1CCCN1C(=O)[C@H](CC(C)C)NC(=O)[C@@H](N)CC(C)C)C(=O)N[C@@H](CO)C(=O)N[C@@H](Cc1c[nH]c2ccccc12)C(=O)N[C@H](C(=O)N[C@@H](CCCCN)C(=O)N[C@@H](CCCN=C(N)N)C(=O)N[C@@H](CCCCN)C(=O)N[C@@H](CCCN=C(N)N)C(=O)N[C@@H](CCC(N)=O)C(=O)N[C@@H](CCC(N)=O)C(N)=O)[C@@H](C)CC [LLPALISWIKRKRQQ] the MIC [1] was 1.19 µM (≈ 2.2 µg/mL), the MIC [2] was 38.3 µM (≈ 70.8 µg/mL) and the MIC [3] was 0.595 µM (≈ 1.1 µg/mL).

Work on CC[C@H](C)[C@H](NC(=O)[C@H](CC(=O)O)NC(=O)[C@@H](NC(=O)[C@H](CCCCN)NC(=O)[C@H](Cc1ccccc1)NC(=O)[C@@H]1CCCN1)[C@@H](C)CC)C(=O)N[C@@H](Cc1cnc[nH]1)C(=O)N[C@@H](CC(C)C)C(=O)NCC(=O)NCC(=O)N[C@@H](Cc1ccc(O)cc1)C(N)=O [PFKIDIHLGGY] yielded an MIC [4] of 23.8 µM (≈ 30 µg/mL).

Work on CC[C@H](C)[C@H](NC(=O)CNC(=O)[C@H](CO)NC(=O)[C@H](CC(C)C)NC(=O)[C@H](CC(C)C)NC(=O)CN)C(=O)N[C@@H](CC(C)C)C(=O)NCC(=O)N[C@@H](C)C(=O)NCC(=O)N[C@@H](CCCCN)C(=O)N[C@@H](Cc1cnc[nH]1)C(=O)N[C@H](C(=O)N[C@H](C(=O)N[C@H]1CSSC[C@@H](C(=O)O)NC(=O)[C@H](CC(C)C)NC(=O)CNC(=O)[C@H](CO)NC(=O)[C@H](CC(C)C)NC(=O)CNC1=O)[C@@H](C)CC)[C@@H](C)CC [GLLSGILGAGKHIICGLSGLC] yielded an MIC [1] of at least 50.4 µM, an MIC [5] of 0.555 µM (≈ 1.1 µg/mL) and an MIC [2] of over 50.4 µM. The MIC [3] was over 50.4 µM.

For CC[C@H](C)[C@H](NC(=O)CNC(=O)[C@H](CO)NC(=O)[C@H](CC(C)C)NC(=O)[C@H](CC(C)C)NC(=O)CN)C(=O)N[C@@H](CC(C)C)C(=O)NCC(=O)N[C@@H](C)C(=O)NCC(=O)N[C@@H](CCCCN)C(=O)N[C@@H](Cc1cnc[nH]1)C(=O)N[C@H](C(=O)N[C@H](C(=O)N[C@@H](CS)C(=O)NCC(=O)N[C@@H](CC(C)C)C(=O)N[C@@H](CO)C(=O)NCC(=O)N1CCC[C@H]1C(=O)N[C@H]1CSSC[C@@H](C(=O)O)NC(=O)[C@H](CCCCN)NC(=O)[C@H](C)NC(=O)[C@H](CC(C)C)NC(=O)[C@H](Cc2cnc[nH]2)NC(=O)[C@H](Cc2ccc(O)cc2)NC(=O)[C@H](CCC(=O)O)NC(=O)[C@H](C(C)C)NC(=O)[C@H](CC(=O)O)NC(=O)[C@H](CO)NC(=O)[C@H](CO)NC(=O)[C@H](CCCCN)NC(=O)[C@H](CCCN=C(N)N)NC(=O)[C@H](CC(N)=O)NC(=O)[C@H](CC(C)C)NC(=O)[C@H](CO)NC(=O)[C@H](CCC(N)=O)NC1=O)C(C)C)[C@@H](C)CC [GLLSGILGAGKHIVCGLSGPCQSLNRKSSDVEYHLAKC], the MIC [1] was 3.19 µM (≈ 12.5 µg/mL), the MIC [5] was 0.797 µM (≈ 3.12 µg/mL) and the MIC [2] was 1.6 µM (≈ 6.25 µg/mL). The MIC [3] was 0.797 µM (≈ 3.12 µg/mL).

With CC[C@H](C)[C@H](NC(=O)[C@H](CCCCN)NC(=O)[C@H](Cc1ccccc1)NC(=O)[C@H](C)NC(=O)[C@H](CCCCN)NC(=O)CNC(=O)[C@H](CC(C)C)NC(=O)[C@H](CC(C)C)NC(=O)[C@H](CO)NC(=O)CNC(=O)[C@H](CC(C)C)NC(=O)CN)C(=O)NCC(=O)N[C@@H](CC(C)C)C(=O)N[C@@H](CCCCN)C(=O)N[C@H](C(=O)N[C@H](C(=O)NCC(=O)N[C@@H](CCCCN)C(=O)N[C@@H](CCSC)C(=O)N[C@@H](CCSC)C(=O)NCC(=O)NCC(=O)N[C@@H](C)C(=O)N1CCC[C@H]1C(=O)N[C@@H](CCCNC(=N)N)C(=O)N[C@@H](CCC(=O)O)C(=O)N[C@@H](CCC(N)=O)C(=O)O)C(C)C)[C@@H](C)O [GLGSLLGKAFKIGLKTVGKMMGGAPREQ] the MIC [6] was 25 µM (≈ 71.1 µg/mL), the MIC [7] was 5 µM (≈ 14.2 µg/mL) and the MIC [3] was 5.66 µM (≈ 16.1 µg/mL). For the same compound, the MIC [8] was 5.66 µM (≈ 16.1 µg/mL) and the MIC [9] was 5 µM (≈ 14.2 µg/mL).

CSCC[C@H](NC(=O)[C@H](Cc1ccccc1)NC(=O)CN)C(=O)N[C@@H](CO)C(=O)N[C@H](C(=O)N[C@@H](C)C(=O)N[C@@H](CO)C(=O)N[C@@H](CC(N)=O)C(=O)N[C@H](C(=O)N[C@@H](CC(C)C)C(=O)N[C@H](C(=O)N[C@@H](CC(N)=O)C(=O)N[C@H](C(=O)N[C@@H](C)C(=O)NCC(=O)N[C@H](C(=O)N[C@H](C(=O)N[C@@H](CCSC)C(=O)N[C@@H](CC(=O)O)C(=O)N[C@@H](CCCCN)C(=O)N[C@@H](CC(C)C)C(=O)N[C@@H](CCCCN)C(=O)N[C@H]1CSSC[C@@H](C(=O)O)NC(=O)[C@H](C)NC(=O)CNC(=O)[C@H]([C@@H](C)O)NC(=O)[C@H](Cc2ccccc2)NC(=O)[C@H](CCCCN)NC1=O)C(C)C)[C@@H](C)O)C(C)C)[C@@H](C)O)C(C)C)[C@@H](C)O [GFMSTASNVLTNVAGTVMDKLKCKFTGAC] was tested, and the MIC [10] was at least 100 µM.

Work on CC[C@H](C)[C@H](NC(=O)[C@H](CO)NC(=O)[C@H](C)NC(=O)[C@@H](NC(=O)[C@H](CCCCN)NC(=O)[C@H](CCCCN)NC(=O)[C@H](Cc1c[nH]c2ccccc12)NC(=O)[C@@H](NC(=O)[C@@H](N)CC(N)=O)[C@@H](C)CC)[C@@H](C)CC)C(=O)N[C@@H](C)C(=O)N[C@@H](CCCCN)C(=O)N[C@@H](CCC(=O)O)C(=O)N[C@H](C(=O)N[C@@H](CC(C)C)C(=O)N[C@@H](CCCCN)C(=O)N[C@@H](C)C(=O)N[C@@H](CC(C)C)C(N)=O)C(C)C [NIWKKIASIAKEVLKAL] yielded an MIC [1] of 10 µM (≈ 19.2 µg/mL) and an MIC [2] of 6.25 µM (≈ 12 µg/mL).

In the case of CC(C)[C@H](NC(=O)[C@H](CCCCN)NC(=O)[C@@H](NC(=O)[C@H](CCC(N)=O)NC(=O)[C@H](CCCCN)NC(=O)[C@H](Cc1c[nH]c2ccccc12)NC(=O)[C@@H](N)CCCN=C(N)N)C(C)C)C(=O)N[C@@H](CCCCN)C(=O)N[C@@H](CCCN=C(N)N)C(=O)O [RWKQVKVKR], the MIC [7] is reported as 61.1 µM (≈ 75 µg/mL), the MIC [10] is reported as at least 61.1 µM and the MIC [11] is reported as 30.5 µM (≈ 37.5 µg/mL). For the same compound, the MIC [9] was over 81.5 µM.

Work on CC[C@H](C)[C@H](NC(=O)[C@@H](NC(=O)[C@@H]1CCCN1C(=O)[C@@H](NC(=O)[C@@H]1CCCN1C(=O)[C@H](CCCCN)NC(=O)[C@H](CCCCN)NC(=O)[C@H](CO)NC(=O)CN)C(C)C)[C@@H](C)CC)C(=O)N[C@@H](Cc1ccc(O)cc1)C(=O)N[C@H]1CSSC[C@@H](C(=O)N[C@@H](CCC(N)=O)C(=O)N[C@@H](CCCN=C(N)N)C(=O)N[C@@H](CCSC)C(=O)O)NC(=O)[C@H](CCCCN)NC(=O)[C@H](C)NC(=O)[C@H]([C@@H](C)O)NC(=O)[C@H](CCCN=C(N)N)NC(=O)[C@H](CCCN=C(N)N)NC(=O)[C@H](CC(N)=O)NC1=O [GSKKPVPIIYCNRRTAKCQRM] yielded an MIC [12] of 6.53 µM (≈ 16 µg/mL) and an MIC [7] of 6.53 µM (≈ 16 µg/mL).

CC[C@H](C)[C@H](NC(=O)[C@H](CCCN=C(N)N)NC(=O)[C@H](C)NC(=O)[C@@H](NC(=O)[C@@H](NC(=O)[C@H](CCCN=C(N)N)NC(=O)[C@@H](N)CCCCN)[C@@H](C)CC)C(C)C)C(=O)N[C@@H](CCCCN)C(=O)N[C@@H](C)C(=O)N[C@@H](C)C(=O)N[C@@H](CC(C)C)C(=O)N[C@@H](CCCN=C(N)N)C(=O)O [KRIVARIKAALR] was tested, and the MIC [6] was 10 µM (≈ 13.9 µg/mL), the MIC [13] was 5 µM (≈ 6.97 µg/mL) and the MIC [14] was 2.5 µM (≈ 3.49 µg/mL). The MIC [7] was 2.5 µM (≈ 3.49 µg/mL).

CC[C@H](C)[C@H](N)C(=O)N[C@@H](CC(=O)O)C(=O)N[C@@H](Cc1c[nH]c2ccccc12)C(=O)N[C@@H](CCCCN)C(=O)N[C@@H](CCCCN)C(=O)N[C@H](C(=O)N[C@@H](Cc1ccccc1)C(=O)N[C@@H](CCC(=O)O)C(=O)N[C@@H](CCCCN)C(=O)N[C@H](C(=O)N[C@@H](CCCCN)C(=O)N[C@@H](CC(=O)O)C(=O)N[C@@H](CC(C)C)C(=O)N[C@H](C(N)=O)C(C)C)C(C)C)[C@@H](C)CC [IDWKKIFEKVKDLV] was tested, and the MIC [1] was 17.5 µM (≈ 30.8 µg/mL) and the MIC [2] was 47.5 µM (≈ 83.6 µg/mL).

CC[C@H](C)[C@H](NC(=O)[C@H](CCCN=C(N)N)NC(=O)[C@H](CCCCN)NC(=O)[C@@H](NC(=O)[C@@H](NC(=O)[C@H](CCCN=C(N)N)NC(=O)[C@@H](N)CCCCN)[C@@H](C)CC)C(C)C)C(=O)N[C@@H](CCCCN)C(=O)N[C@@H](C)C(=O)N[C@@H](Cc1ccccc1)C(=O)N[C@@H](CC(C)C)C(=O)N[C@@H](CCCN=C(N)N)C(=O)O [KRIVKRIKAFLR] gave an MIC [6] of 1.25 µM (≈ 1.91 µg/mL), an MIC [13] of 1.25 µM (≈ 1.91 µg/mL) and an MIC [14] of 1.25 µM (≈ 1.91 µg/mL). For the same compound, the MIC [7] was 1.25 µM (≈ 1.91 µg/mL).

CC[C@H](C)[C@H](NC(=O)[C@@H](NC(=O)[C@@H](NC(=O)[C@@H]1CCCN1C(=O)[C@H](Cc1c[nH]c2ccccc12)NC(=O)[C@H](Cc1ccccc1)NC(=O)[C@H](CCCN=C(N)N)NC(=O)[C@H](CCCCN)NC(=O)[C@@H](NC(=O)[C@@H](N)CCCN=C(N)N)[C@@H](C)CC)C(C)C)C(C)C)C(=O)N[C@@H](CCCN=C(N)N)C(=O)N[C@H](C(=O)N[C@H](C(=O)N[C@H](C(=O)N[C@@H](C)C(=O)NCC(=O)N[C@@H](Cc1ccc(O)cc1)C(=O)N[C@@H](CC(N)=O)C(=O)O)C(C)C)C(C)C)[C@@H](C)O [RIKRFWPVVIRTVVAGYN] gave an MIC [15] of at least 69 µM.

Work on CC(C)C[C@H](NC(=O)[C@@H]1CCCN1C(=O)[C@H](CCCCN)NC(=O)[C@@H]1CCCN1C(=O)[C@H](Cc1ccc(O)cc1)NC(=O)[C@H](CCCCN)NC(=O)[C@H](Cc1c[nH]c2ccccc12)NC(=O)[C@H](CCCN=C(N)N)NC(=O)[C@@H](N)Cc1ccccc1)C(=O)N[C@@H](CCCCN)C(=O)N[C@@H](CCCN=C(N)N)C(=O)O [FRWKYPKPLKR] yielded an MIC [7] of over 65.8 µM, an MIC [10] of at least 65.8 µM and an MIC [11] of over 65.8 µM. The MIC [9] was over 65.8 µM.
